Laboratory results reported in patent US20240277873A1, “ULTRABRIGHT […] PROBES FOR DETECTION AND IMAGING” (Nanyang Technological University, priority 2021, published 2024).

Experiments:
IMQ-induced psoriasis = experiment: Real-time chemiluminescence imaging in IMQ-induced psoriasis model; assay type: in vivo, BALB/c mice; conditions: 3 min post-topical administration of BTPDNe, microneedle
Description: The control group was treated with Vaseline (50 mg/d) and the IMQ-treatment group was applied with IMQ cream (60 mg/d, 5%) once a day. […] Probe BTPDNe (10 uM, 1 mM in DMSO) was thoroughly mixed with Aquaphor (˜10 mg) and applied for psoriasis imaging, followed by poly(methyl methacrylate) microneedle treatment for 1 min. Then, chemiluminescent signals at different time-points (0, 3, 5, 10, 15, 30, 45 and 60 min) after probe-treatment were recorded using IVIS system bioluminescence with acquiring time of 180 s. Until the third day, all the mice were sacrificed to collect tissue and blood for further experiments (hematoxylin and eosin (H&E) staining and flow cytometry analysis) as described in Example 11.

[1] = Blood test: chemiluminescence after incubation in healthy mouse blood; conditions: 20 μM, 30 min, 100 μL blood
Description: BTPDNe (20 μM) and MPDNe (20 μM) were incubated for 30 min in healthy mouse blood (100 μL), respectively. Chemiluminescence intensities were measured by IVIS system bioluminescence with an acquisition time of 60 s.

neutrophils = experiment: Cytotoxicity assay (MTS), neutrophils; assay type: cell-based; conditions: 2.5 to 50 μM, 24 h
Description: (§1) Neutrophils and normal mouse embryonic fibroblasts (3T3) cells were seeded in 96-well plates which have 5×10^4 cells per well and incubated for 24 h. Then, BTPDNe at different concentrations (2.5, 5, 10, 20 and 50 μM) was added into the neutrophils and 3T3 cells, respectively. After 24 h incubation, MTS assay was added to the cell for 4 h incubation. After incubation, the absorbance of MTS at 490 nm was recorded by using a microplate reader (SpectraMax M, Switzerland). The assays were performed in five sets for each concentration.

3T3 cells = experiment: Cytotoxicity assay (MTS), 3T3 cells; assay type: cell-based, mouse; conditions: 2.5 to 50 μM, 24 h
Description: as §1

COC1(c2ccc(-c3nc4ccccc4s3)c(OCc3ccc(NC(=O)[C@@H](NC(=O)[C@@H]4CCCN4C(=O)[C@H](C)NC(=O)[C@H](C)NC(C)=O)C(C)C)cc3)c2)OOC12C1CC3CC(C1)CC2C3 (stereo partly drawn) [BTPDNe]
chemiluminescent signal from dorsal skins vs control group, day 1 (IMQ-induced psoriasis; day 1 post IMQ): 3.1 fold | chemiluminescent signal from dorsal skins vs control group, day 2 (IMQ-induced psoriasis; day 2 post IMQ): 3.7 fold | chemiluminescent signal from dorsal skins vs control group, day 3 (IMQ-induced psoriasis; day 3 post IMQ): 2.9 fold | chemiluminescence intensities after incubation with healthy mouse blood [1]: Negligible | cytotoxicity (cell viability, MTS) (neutrophils): no cytotoxicity | cytotoxicity (cell viability, MTS) (3T3 cells): no cytotoxicity
